These results are taken from patent US11040031B2, “Pyrazole derivatives as MALT1 inhibitors” (Janssen Pharmaceutica NV, priority 2018, dated 2021).

The test system of assay [1] is Secretion of IL6 by TMD8 ABC-DLBCL cells. Put plainly: Human IL6 Mesoscale assay (TMD-8). It is filed as cell-based. The note with it: read-out: Human IL6 Mesoscale assay (TMD-8). On the procedure: (§1) NFKB signaling regulates the secretion of multiple cytokines, including IL6 and IL10. Secretion of the cytokines IL6 and IL10 by TMD8 or OCI-LY3 ABC-DLBCL cells was measured using a mesoscale assay.
(§2) Cell passage number should not exceed 30. Cells should be kept between 0.5-2.5 million cells per mL during culturing and cells should be supplemented every 2-3 days with fresh 50 µM beta-mercaptoenthanol. No beta-mercaptoethanol was used during the mesoscale assay.
(§3) DMSO control wells were used to determine the maximum signal (High Control (HC)). […] Compounds and cells were incubated for 24 h at 37° C. and 5% CO2 (assay volume is 150 μL). After 24 h of incubation 50 μL of the supernatant was transferred to a MSD plate (V-Plex Proinflammation Panel 1 (human) kit, Mesoscale (MSD)) and incubated for 2 h with vigorous shaking (600 rpm) at room temperature. Following incubation, plates were washed 3× with PBS+0.05% Tween-20 and 25 μL detection antibody solution (IL6 & IL10 antibodies in diluent 3 (MSD)) was added per well followed by 2 h of incubation with vigorous shaking (600 rpm) at room temperature. After 3× washes with PBS+0.05% Tween-20, plates were incubated with 150 μL 2× Read Buffer T and read on SECTOR imager.

In assay [2] the target is T1, full-length MALT1 protein (Strep-MALT1(1-824)-His) (Homo sapiens, UniProt Q9UDY8).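 Note: fluorogenic LRSR-AMC substrate cleavage by MALT1, 50 min compound preincubation then 4 h reaction at RT, 11-point dilution from 30 µM, scaled between enzyme-free and untreated enzyme controls.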
T1 sequence (Q9UDY8 1-824): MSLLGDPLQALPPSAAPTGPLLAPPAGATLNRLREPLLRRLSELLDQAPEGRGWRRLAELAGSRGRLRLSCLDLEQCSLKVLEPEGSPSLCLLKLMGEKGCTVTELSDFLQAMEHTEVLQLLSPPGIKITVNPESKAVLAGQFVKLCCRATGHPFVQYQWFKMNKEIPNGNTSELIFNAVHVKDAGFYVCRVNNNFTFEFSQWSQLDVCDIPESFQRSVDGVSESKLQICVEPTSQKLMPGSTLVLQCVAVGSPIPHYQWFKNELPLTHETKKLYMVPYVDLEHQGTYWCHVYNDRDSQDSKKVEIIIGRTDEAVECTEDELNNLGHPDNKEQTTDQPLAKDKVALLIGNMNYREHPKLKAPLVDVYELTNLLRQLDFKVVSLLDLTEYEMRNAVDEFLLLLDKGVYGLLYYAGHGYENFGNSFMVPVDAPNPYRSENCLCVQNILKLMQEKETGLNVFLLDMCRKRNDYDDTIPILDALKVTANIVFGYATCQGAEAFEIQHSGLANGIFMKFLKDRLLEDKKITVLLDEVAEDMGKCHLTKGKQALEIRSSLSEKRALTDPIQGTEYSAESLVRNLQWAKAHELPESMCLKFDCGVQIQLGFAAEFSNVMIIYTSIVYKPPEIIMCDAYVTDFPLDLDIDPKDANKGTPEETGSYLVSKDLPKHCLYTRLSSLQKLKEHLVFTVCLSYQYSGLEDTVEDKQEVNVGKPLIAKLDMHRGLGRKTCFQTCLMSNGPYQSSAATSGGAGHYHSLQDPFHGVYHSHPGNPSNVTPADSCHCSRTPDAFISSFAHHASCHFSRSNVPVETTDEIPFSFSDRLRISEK
Kind of assay: biochemical.
Experimental: MALT1 protease activity was assessed in an in vitro assay using a tetrapeptide as substrate and full-length MALT1 protein (Strep-MALT1(1-824)-His) purified from baculovirus-infected insect cells. The tetrapeptide LRSR is coupled to AMC (7-amino-4-methylcoumarin) and provides a quenched, fluorescent substrate for the MALT1 protease (SM Biochemicals). Cleavage of AMC from the Arginine residue results in an increase in coumarin fluorescence measured at 460 nm (excitation 355 nm). […] Test compounds were spotted at 50 nL in 100% DMSO per well of a black 384-Proxiplate (Perkin Elmer). Test compound concentrations ranged from 30 μM to 0.5 nM using 11 dilution steps (1:3). Background signal was measured from control wells containing assay buffer without enzyme which functions as low control (LC). High control (HC) values were generated using the reaction with enzyme but no compound treatment. Compounds were pre-incubated with MALT1 enzyme for 50 minutes at RT. Substrate was added subsequently and fluorescence was measured in Labsystems fluoroskan at excitation 355 nm and emission 460 nm to determine time 0. The reaction was subsequently incubated for 4 h at RT and fluorescence was measured. […] The enzyme reaction was linear during the 4 h incubation period.
IC50 values were calculated using the following formula (Z prime should be >0.5):
From this an IC50 value (inhibitory concentration causing 50% inhibition) can be obtained. An estimate of the slope of the plot in terms of the Hill coefficient was also obtained.
With y=estimated response • UB=upper bound • LB=lower bound • h=hill

In assay [3] the test system is OCI-Ly3 ABC-DLBCL cell line. Kind of assay: 4-day proliferation assay OCI-Ly3. The assay is classed as cell-based. The settings on record: Homo sapiens, read-out: Anti-proliferation: OCI-LY-3 IC50. An outline of the steps: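 10,000 OCI-Ly3 cells per well cultured 4 days at 37° C., 5% CO2 without beta-mercaptoethanol, at densities giving linear growth. Viability read by CellTiterGLO luminescence after 10 min at room temperature.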

Assay [4] relates to Secretion of IL10 by TMD8 ABC-DLBCL cells. Put plainly: Human IL10 Mesoscale assay (TMD-8). It is filed as cell-based. The note with it: read-out: Human IL10 Mesoscale assay (TMD-8). As for the experimental part: as §1, §2, §3
[5] abbreviates: TMD8 cells, 24 h incubation, supernatant, MSD V-Plex.
The mark [6] stands for this setting: 96 h, 10,000 OCI-Ly3 cells per well, 4 days, CellTiterGLO.

Like-named read-outs stand apart in the source and are kept apart here.

As to `Cc1ccccc1-n1ncc(C(=O)Nc2cnc(-n3nccn3)c(Cl)c2)c1C(F)(F)F` [Cpd 29, N-(5-chloro-6-(2H-1,2,3-triazol-2-yl)pyridin-3-yl)-1-(o-tolyl)-5-(trifluoromethyl)-1H-pyrazole-4-carboxamide], the IC50 in assay [1] (setting [5]) amounted to 135 nM; in assay [2], 151 nM; in assay [3] (setting [6]), 1230 nM; in assay [4] (setting [5]) it was 132 nM.

As for `COc1nccc(-n2ncc(C(=O)Nc3cnc(-n4nccn4)c(C#N)c3)c2C(F)(F)F)c1Cl` [Cpd 32, 1-(3-Chloro-2-methoxypyridin-4-yl)-N-(5-cyano-6-(2H-1,2,3-triazol-2-yl)pyridin-3-yl)-5-(trifluoromethyl)-1H-pyrazole-4-carboxamide], the IC50 is 1120 nM in assay [1] (setting [5]), 589 nM in assay [2], 575 nM in assay [3] (setting [6]) and 646 nM in assay [4] (setting [5]).

In the case of `N#Cc1cc(NC(=O)c2cnn(-c3ncc(F)cc3Br)c2C(F)(F)F)cnc1-n1nccn1` [Cpd 34, 1-(3-Bromo-5-fluoropyridin-2-yl)-N-(5-cyano-6-(2H-1,2,3-triazol-2-yl)pyridin-3-yl)-5-(trifluoromethyl)-1H-pyrazole-4-carboxamide], the IC50 in assay [1] (TMD8, 24 h) came to 407 nM; in assay [2] it was 145 nM; in assay [3] (OCI-Ly3, 96 h), 457 nM; in assay [4] (TMD8, 24 h), 631 nM.

Turning to `N#Cc1cc(NC(=O)c2cnn(-c3nccc(Cl)c3Cl)c2C(F)(F)F)cnc1-n1nccn1` [Cpd 36, N-(5-Cyano-6-(2H-1,2,3-triazol-2-yl)pyridin-3-yl)-1-(3,4-dichloropyridin-2-yl)-5-(trifluoromethyl)-1H-pyrazole-4-carboxamide], the IC50 in assay [1] (TMD8, 24 h) was 1550 nM; in assay [2], 214 nM; in assay [3] (OCI-Ly3, 96 h) it was 4270 nM; in assay [4] (TMD8, 24 h), 1150 nM.

With `Cc1nccc(-n2ncc(C(=O)Nc3cnc(-n4nccn4)c(C#N)c3)c2C(F)(F)F)c1Cl` [Cpd 43, 1-(3-chloro-2-methylpyridin-4-yl)-N-(5-cyano-6-(2H-1,2,3-triazol-2-yl)pyridin-3-yl)-5-(trifluoromethyl)-1H-pyrazole-4-carboxamide], the IC50 in assay [1] (setting [5]) turned out to be 4790 nM; in assay [2] it was 170 nM; in assay [3] (setting [6]) it was 6310 nM; in assay [4] (setting [5]), 2240 nM.

On to `N#Cc1cc(NC(=O)c2cnn(-c3ncccc3Cl)c2C(F)(F)F)cnc1-n1nccn1` [Cpd 44, 1-(3-Chloropyridin-2-yl)-N-(5-cyano-6-(2H-1,2,3-triazol-2-yl)pyridin-3-yl)-5-(trifluoromethyl)-1H-pyrazole-4-carboxamide], for which the IC50 in assay [1] (setting [5]) came out at 490 nM; in assay [2], 389 nM; in assay [3] (setting [6]), 11000 nM; in assay [4] (setting [5]), 1230 nM.

With `N#Cc1cc(NC(=O)c2cnn(-c3ccncc3Cl)c2C(F)(F)F)cnc1-n1nccn1` [Cpd 45, 1-(3-chloropyridin-4-yl)-N-(5-cyano-6-(2H-1,2,3-triazol-2-yl)pyridin-3-yl)-5-(trifluoromethyl)-1H-pyrazole-4-carboxamide], the IC50 in assay [1] (setting [5]) stood at 162 nM; in assay [2], 87 nM; in assay [3] (setting [6]), 4790 nM; in assay [4] (setting [5]) it was 339 nM.

As to `N#Cc1cc(NC(=O)c2cnn(-c3c(Cl)cncc3Cl)c2C(F)(F)F)cnc1-n1nccn1` [Cpd 48, N-(5-cyano-6-(2H-1,2,3-triazol-2-yl)pyridin-3-yl)-1-(3,5-dichloropyridin-4-yl)-5-(trifluoromethyl)-1H-pyrazole-4-carboxamide], the IC50 was 1620 nM in assay [1] (TMD8, 24 h); 204 nM in assay [2]; 3630 nM in assay [3] (OCI-Ly3, 96 h); 513 nM in assay [4] (TMD8, 24 h).

As to `N#Cc1cc(NC(=O)c2cnn(-c3cccc4c3OCCO4)c2C(F)(F)F)cnc1-n1nccn1` [Cpd 49, N-(5-cyano-6-(2H-1,2,3-triazol-2-yl)pyridin-3-yl)-1-(2,3-dihydrobenzo[b][1,4]dioxin-5-yl)-5-(trifluoromethyl)-1H-pyrazole-4-carboxamide], the IC50 in assay [1] (setting [5]) amounted to 145 nM; in assay [2], 148 nM; in assay [3] (setting [6]), 437 nM; in assay [4] (setting [5]) it was 151 nM.
